Patent US20180148418A1, “AMIDO-SUBSTITUTED CYCLOHEXANE DERIVATIVES” (Bayer Pharma Aktiengesellschaft, priority 2015, published 2018)

What was measured:
TNKS2 = biological target: T1, TNKS2 (Homo sapiens, UniProt Q9H2K2); assay: TNKS2 Assay B (auto-parsylation, [3H]-NAD+ SPA); type: biochemical; settings: 6 nM TNKS2, auto-parsylation, over night at room temperature
T1 construct: purchased BPS Bioscience, San Diego, USA 80572 (TNKS2 Histone Ribosylation Assay Kit)
T1 sequence (Q9H2K2 1-1166): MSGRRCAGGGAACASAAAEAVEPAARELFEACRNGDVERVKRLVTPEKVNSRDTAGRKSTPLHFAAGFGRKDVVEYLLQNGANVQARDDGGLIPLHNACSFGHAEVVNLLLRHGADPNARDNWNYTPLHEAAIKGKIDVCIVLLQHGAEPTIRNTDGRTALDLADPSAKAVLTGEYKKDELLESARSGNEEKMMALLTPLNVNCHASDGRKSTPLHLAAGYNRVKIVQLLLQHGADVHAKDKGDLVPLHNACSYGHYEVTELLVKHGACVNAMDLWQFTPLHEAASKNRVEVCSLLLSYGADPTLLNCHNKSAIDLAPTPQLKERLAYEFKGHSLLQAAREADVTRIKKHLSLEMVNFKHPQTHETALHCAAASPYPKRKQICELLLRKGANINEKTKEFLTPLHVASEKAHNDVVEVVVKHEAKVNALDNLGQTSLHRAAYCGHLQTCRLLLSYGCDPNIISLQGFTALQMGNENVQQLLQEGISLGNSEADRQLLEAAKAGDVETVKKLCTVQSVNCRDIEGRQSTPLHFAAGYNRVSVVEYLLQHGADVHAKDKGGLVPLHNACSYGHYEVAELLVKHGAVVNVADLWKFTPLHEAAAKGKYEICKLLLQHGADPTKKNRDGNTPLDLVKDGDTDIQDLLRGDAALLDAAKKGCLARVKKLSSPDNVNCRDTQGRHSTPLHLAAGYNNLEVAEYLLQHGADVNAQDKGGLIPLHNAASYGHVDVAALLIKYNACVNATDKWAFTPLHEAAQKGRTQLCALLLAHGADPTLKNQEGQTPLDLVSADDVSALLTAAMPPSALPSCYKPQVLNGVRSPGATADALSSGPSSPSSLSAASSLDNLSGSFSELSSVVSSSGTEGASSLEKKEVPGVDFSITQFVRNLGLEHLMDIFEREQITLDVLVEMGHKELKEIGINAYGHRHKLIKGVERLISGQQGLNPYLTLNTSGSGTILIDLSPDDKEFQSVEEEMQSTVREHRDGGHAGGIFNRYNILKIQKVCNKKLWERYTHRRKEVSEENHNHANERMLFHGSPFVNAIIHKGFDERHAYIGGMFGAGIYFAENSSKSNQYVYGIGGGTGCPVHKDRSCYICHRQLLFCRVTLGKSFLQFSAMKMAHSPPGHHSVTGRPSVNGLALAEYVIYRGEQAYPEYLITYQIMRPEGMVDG

[1] = system: wildtype Wnt signaling cascade; assay: HEK293 TOP assay (Super TopFlash luciferase reporter, Wnt-3a stimulated); type: cell-based; settings: HEK293 TOP reporter cells, Wnt3a at EC50, 16 hours
Procedure, shortened: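 Compound series (50 μM down to 15 nM, 3.16-fold) diluted from DMSO 50-fold into CAFTY buffer, pH 7.4, 2 mM Ca^2+, 0.01% BSA, applied to Wnt-3a-stimulated HEK293 TopFlash and FOP reporter lines in parallel. Cells seeded 10000/well 24 h before; luciferase signal measured.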

[2] = system: HEK293 cells cotransfected with the FOP control vector; assay: HEK293 FOP assay (control reporter with non-functional TCF elements); type: cell-based; settings: 16 hours
Procedure, shortened: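 Compound series from 50 μM down to 15 nM, prediluted in DMSO then 50-fold into CAFTY buffer (pH 7.4, 2 mM Ca2+, 0.01% BSA), tested alongside TOP cells on a Geneticin-selected HEK293 FOP line whose TCF elements are replaced by a random sequence; recombinant human Wnt-3a applied at 2500-5 ng/ml.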

Row | IC50 (TNKS2) | IC50 ([1]; Homo sapiens, HEK293, 16 h) | SMILES | IC50 ([2]; Homo sapiens) | IC50 [1] | IC50 [2]
1 | 74 nM | 880 nM | O=C(N[C@H]1CC[C@H](C(=O)Nc2ccc(F)cc2Cl)CC1)c1cnn2ccc(N3CCOCC3)nc12 [Example 107, N-{trans-4-[(2-chloro-4-fluorophenyl)carbamoyl]cyclohexyl}-5-(morpholin-4-yl)pyrazolo[1,5-a]pyrimidine-3-carboxamide] | ≥ 50000 nM | – | –
2 | 91 nM | 130 nM | CN(c1ccc(F)cc1Cl)C(=O)[C@H]1CC[C@H](NC(=O)c2cnn3cccnc23)CC1 [Example 155, N-{trans-4-[(2-chloro-4-fluorophenyl)(methyl)carbamoyl]cyclohexyl}pyrazolo[1,5-a]pyrimidine-3-carboxamide] | ≥ 50000 nM | – | –
3 | 38 nM | 3000 nM | CN1CCN(c2ccn3ncc(C(=O)N[C@H]4CC[C@H](C(=O)Nc5ccc(F)cc5Cl)CC4)c3n2)CC1 [Example 109] | ≥ 50000 nM | – | –
4 | 57 nM | 130 nM | CCN(c1ccc(F)cc1Cl)C(=O)[C@H]1CC[C@H](NC(=O)c2cnn3cccnc23)CC1 [Example 154, N-{trans-4-[(2-chloro-4-fluorophenyl)(ethyl)carbamoyl]cyclohexyl}pyrazolo[1,5-a]pyrimidine-3-carboxamide] | ≥ 50000 nM | – | –
5 | 1300 nM | 140 nM | O=C(N[C@H]1CC[C@]2(CCN(c3ccc(F)cc3Cl)C2=O)CC1)c1cnn2cccnc12 [Example 148, N-[(cis)-2-(2-chloro-4-fluorophenyl)-1-oxo-2-azaspiro[4.5]dec-8-yl]pyrazolo[1,5-a]pyrimidine-3-carboxamide] | ≥ 50000 nM | – | –
6 | 170 nM | 190 nM | O=C(N[C@H]1CC[C@H](C(=O)Nc2cnc(C(F)(F)F)cc2Cl)CC1)c1cnn2cccnc12 [Example 149, N-(trans-4-{[4-chloro-6-(trifluoromethyl)pyridin-3-yl]carbamoyl}cyclohexyl)pyrazolo[1,5-a]pyrimidine-3-carboxamide] | ≥ 50000 nM | – | –
7 | 77 nM | 54 nM | CNC(=O)c1nc[nH]c1C(=O)N[C@H]1CC[C@H](C(=O)Nc2ncncc2Cl)CC1 [Example 147, N^5-{trans-4-[(5-chloropyrimidin-4-yl)carbamoyl]cyclohexyl}-N^4-methyl-1H-imidazole-4,5-dicarboxamide] | ≥ 50000 nM | – | –
8 | 460 nM | 220 nM | O=C(NC12CCC(C(=O)Nc3ccc(F)cc3Cl)(CC1)CC2)c1cnn2cccnc12 [Example 117, N-{4-[(2-chloro-4-fluorophenyl)carbamoyl]bicyclo[2.2.2]oct-1-yl}pyrazolo[1,5-a]pyrimidine-3-carboxamide] | ≥ 50000 nM | – | –
9 | 6.3 nM | 3.8 nM | O=C(NC1CC1)c1nc[nH]c1C(=O)N[C@H]1CC[C@@]2(CCN(c3ccc(F)cc3Cl)C2=O)CC1 [Example 165, N^5-[(trans)-2-(2-chloro-4-fluorophenyl)-1-oxo-2-azaspiro[4.5]dec-8-yl]-N^4-cyclopropyl-1H-imidazole-4,5-dicarboxamide] | 35000 nM | – | –
10 | 8.2 nM | 9.4 nM | CC(C)NC(=O)c1nc[nH]c1C(=O)N[C@H]1CC[C@@]2(CCN(c3ccc(F)cc3Cl)C2=O)CC1 [Example 162, N^5-[(trans)-2-(2-chloro-4-fluorophenyl)-1-oxo-2-azaspiro[4.5]dec-8-yl]-N^4-isopropyl-1H-imidazole-4,5-dicarboxamide] | 40000 nM | – | –
11 | 35 nM | 80 nM | Cc1cc(NC(=O)[C@H]2CC[C@H](NC(=O)c3cnn4cccnc34)CC2)c(Cl)cc1F [Example 150, N-{trans-4-[(2-chloro-4-fluoro-5-methylphenyl)carbamoyl]cyclohexyl}pyrazolo[1,5-a]pyrimidine-3-carboxamide] | ≥ 50000 nM | – | –
12 | 100 nM | 360 nM | COC(C)(C)CNC(=O)c1nc[nH]c1C(=O)N[C@H]1CC[C@H](C(=O)Nc2cc(C)c(F)cc2Cl)CC1 [Example 101, N^5-{trans-4-[(2-chloro-4-fluoro-5-methylphenyl)carbamoyl]cyclohexyl}-N^4-(2-methoxy-2-methylpropyl)-1H-imidazole-4,5-dicarboxamide] | 35000 nM | – | –
13 | 210 nM | 73 nM | COCc1cc(C)nc2c(C(=O)N[C@H]3CC[C@H](C(=O)Nc4ccc(F)cc4Cl)CC3)cnn12 [Example 111, N-{trans-4-[(2-chloro-4-fluorophenyl)carbamoyl]cyclohexyl}-7-(methoxymethyl)-5-methylpyrazolo[1,5-a]pyrimidine-3-carboxamide] | ≥ 50000 nM | – | –
14 | 15 nM | 400 nM | CCOC(=O)c1cnc2c(C(=O)N[C@H]3CC[C@H](C(=O)Nc4ccc(F)cc4Cl)CC3)cnn2c1 [Example 106, ethyl 3-({trans-4-[(2-chloro-4-fluorophenyl)carbamoyl]cyclohexyl}carbamoyl)pyrazolo[1,5-a]pyrimidine-6-carboxylate] | ≥ 50000 nM | – | –
15 | 6.9 nM | 0.86 nM | CNC(=O)c1[nH]cnc1C(=O)N[C@H]1CC[C@@]2(CCN(c3ccc(F)cc3Cl)C2=O)CC1 [Example 140, N^4-[(trans)-2-(2-chloro-4-fluorophenyl)-1-oxo-2-azaspiro[4.5]dec-8-yl]-N^5-methyl-1H-imidazole-4,5-dicarboxamide] | ≥ 50000 nM | – | –
16 | 33 nM | 140 nM | Cc1cc(C)n2ncc(C(=O)N[C@H]3CC[C@H](C(=O)Nc4cc(F)c(F)cc4Cl)CC3)c2n1 [Example 134, N-{trans-4-[(2-chloro-4,5-difluorophenyl)carbamoyl]cyclohexyl}-5,7-dimethylpyrazolo[1,5-a]pyrimidine-3-carboxamide] | ≥ 50000 nM | – | –
17 | 28 nM | 9.2 nM | COCC(C)NC(=O)c1nc[nH]c1C(=O)N[C@H]1CC[C@@]2(CCN(c3ccc(F)cc3Cl)C2=O)CC1 (mixture of isomers) [Example 164, N^5-[(trans)-2-(2-chloro-4-fluorophenyl)-1-oxo-2-azaspiro[4.5]dec-8-yl]-N^4-(1-methoxypropan-2-yl)-1H-imidazole-4,5-dicarboxamide] | ≥ 50000 nM | – | –
18 | 80 nM | 68 nM | CNC(=O)c1nc[nH]c1C(=O)N[C@H]1CC[C@H](C(=O)Nc2cc(C(F)(F)F)ccc2Cl)CC1 [Example 142, N^5-(trans-4-{[2-chloro-5-(trifluoromethyl)phenyl]carbamoyl}cyclohexyl)-N^4-methyl-1H-imidazole-4,5-dicarboxamide] | 41000 nM | – | –
19 | 4300 nM | 2100 nM | O=C(NCC(F)(F)F)c1nc[nH]c1C(=O)N[C@H]1CC[C@H](C(=O)Nc2cc(N3CCOCC3)ccc2Cl)CC1 [Example 95, N^5-(trans-4-{[2-chloro-5-(morpholin-4-yl)phenyl]carbamoyl}cyclohexyl)-N^4-(2,2,2-trifluoroethyl)-1H-imidazole-4,5-dicarboxamide] | 39000 nM | – | –
20 | 330 nM | 30 nM | O=C(NC12CCC(C(=O)Nc3ccc(F)cc3Cl)(CC1)CC2)c1cnc2cccnn12 [Example 121, N-{4-[(2-chloro-4-fluorophenyl)carbamoyl]bicyclo[2.2.2]oct-1-yl}imidazo[1,2-b]pyridazine-3-carboxamide] | ≥ 50000 nM | – | –

Row | SMILES | IC50 (TNKS2) | IC50 ([1]; Homo sapiens, HEK293, 16 h) | IC50 ([2]; Homo sapiens) | IC50 [1] | IC50 [2]
21 | CNC(=O)c1[nH]cnc1C(=O)NC1CCC(C(=O)Nc2ccc(F)cc2Cl)CC1OC (stereo not drawn) [Example 37, N^4-{(1α,2β,4β)-4-[(2-chloro-4-fluorophenyl)carbamoyl]-2-methoxycyclohexyl}-N^5-methyl-1H-imidazole-4,5-dicarboxamide] | > 10000 nM | – | – | 43000 nM | ≥ 50000 nM
